Source: patent US6001880A, “Alkylenediamine derivative, anti-ulcer drug, and antibacterial drug” (Shiseido Co., Ltd., priority 1997, dated 1999)

Experiments:
[1] = system: isolated gastric fundic gland; assay: CAP: Acid Secretion Inhibition Test In Vitro ([14C]-aminopyrine uptake); assay type: cell-based, rabbit (male Japanese White); conditions: Oryctolagus cuniculus; final concentration 10^-5 M; histamine 10^-5 M stimulation; read-out: CAP: acid secretion inhibitory rate
Description: CAP: Acid Secretion Inhibition Test In Vitro
The acid secretion inhibitory activity in a cell level is studied. It can also be used for studying the mechanism of the effect.
First, an isolated gastric fundic gland sample was prepared. Namely, a male Japanese White rabbit (2.5 to 3 kg) was anesthetized to death with Nembutal™ and then the abdomen was incised. Immediately thereafter, the stomach was removed and, after its pyloric and cardiac antrum were severed, incised along its greater curvature into two sheets. The gastric contents adhering to the mucosal surface was washed out with ice-cooled PBS (-) and then carefully washed therein. The gastric wall was spread on a cork board with its mucosal surface facing up and the feed and mucus thereon were completely removed with sterile gauze. The mucosa was separated therefrom by a spatula and then collected in ice-cooled PBS (-). After being washed twice with PBS (-), the mucosa was minced into 2-3 mm^3 pieces by scissors. These pieces were further washed twice with a nutrient solution. The nutrient solution comprises 132.4 mM of NaCl, 5.4 mM of KCl, 5 mM of Na2 HPO4. 12H2 O, 1 mM of NaH2 PO4.2H2 O, 1.2 mM of MgSO4, 1 mM of CaCl2, 25 mM of HEPES, 2 mg/ml of glucose, and 1 mg/ml of BSA.
Into 70 ml of the nutrient solution containing 1 mg/ml of collagenase, minced mucosal pieces were dispersed and intensely stirred in a conical flask with a stirrer at 37° C. for 40 to 60 minutes. During this period, 100% O2 was sprayed on the nutrient solution surface and the pH was appropriately measured such that it was immediately adjusted to pH 7.4, when the value was therebelow, with a base. The nutrient solution was added to the reaction solution so as to attain the total amount of about 200 ml. After being filtered through a mesh, the suspension was divisionally introduced into 50 ml centrifuge tubes and left for 15 minutes such that gastric fundic gland was deposited. The supernatant was repeatedly removed by an aspirator, dispersed in the nutrient solution, and then left such that the gastric fundic gland was washed three times. At this time, without using a pipette, the suspension was alternately introduced into two centrifuge tubes so as to effect dispersion. The number of cells was counted under microscope and adjusted to 1.6×10^6 cells/ml.
Then, [^14 C]-aminopyrine uptake test was performed. After an Eppendorf tube was weighed, 10 μl (final concentration: 10^-5 M) of histamine dissolved in the above-mentioned nutrient solution, 10 μl (final concentration: […]) of the test compound dissolved in DMSO, and 10 μl (final concentration: 0.05 μCi/ml) of [^14 C]-aminopyrine diluted with the nutrient solution were introduced therein and then 970 μl of the isolated gastric fundic gland suspension prepared above was added thereto. Subsequently, this mixture was shaken at 37° C. for 40 minutes at 125 cycles/minute. After being centrifuged for 30 seconds, 200 μl of its supernatant was collected into a mini-vial, while the rest was removed by an aspirator. The gland pellet was completely dried as the tube with its lid being opened was kept for one night in a drying oven at 80° C. and then the lid was closed and the weight was determined at room temperature. Then 100 μl of 1N KOH was added thereto and the tube with its lid being closed was treated at 60° C. for 1 to 2 hours so as to dissolve the pellet. Then, the contents thereof were transferred to a mini-vial. Into the mini-vial containing the supernatant or gland pellet, 4 ml of Atomlite™ was added and then the radioactivity was measured by a liquid scintillation counter. Here, after the radioactivity of the gland pellet was corrected by using a sample in which 20 mM of NaSCN was added so as to cancel the hydrogen ion concentration gradient, the integration ratio of aminopyrine specifically trapped by the gland pellet was calculated. This experiment was performed in duplicate.
Here, its principle will be briefly explained. […]

[2] = system: stress ulcer formation in rats; assay: WIS: Restraint and Water Immersion Stress-Induced Ulcer Inhibition Test; assay type: in vivo, rat (male Crj:SD or Slc:SD); conditions: 100 mg/kg oral, 10 minutes before 7 h restraint and water immersion (21° C.)
Description: WIS: Restraint and Water Immersion Stress-Induced Ulcer Inhibition Test
The degree of inhibition of the stress ulcer formation is tested.
Male Crj:SD or Slc:SD rats (6 to 7-week-old) were fasted overnight, but allowed free access to water. Each group has 5 to 8 of these rats. The sample compound was dissolved or suspended in an aqueous solution of 0.3% sodium carboxymethylcellulose or 0.05% Tween 80 and then was orally administered (100 mg/10 ml/kg). To a control group, the vehicle was administered. 10 minutes later, the rats were placed in a stress cage and immersed to the level of xipfoid process in a water bath (21° C.) for 7 hours. At the end of the stress, the rats were sacrificed by inhalation of ether or carbon dioxide. Then, the stomach of each was removed, inflated by injecting 10 ml of 5% formalin neutral buffer solution, and immersed in 1% formalin neutral buffer solution for 30 minutes or more to be fixed. The stomach was incised along the greater curvature and then the length of each erosion in the glandular portion was determined under dissecting microscope. The sum of the length of erosions per stomach was defined as ulcer index (UI).
The effect obtained when 100 mg/kg of the sample compound had been administered was expressed as ulcer formation inhibitory rate (%) as follows:
ulcer formation inhibitory rate (%)=(1-(UI in sample group/UI in control

[3] = MTT: Cell Damaging and Protecting Effect Test; assay type: cell-based, rabbit (male Japanese White); conditions: rabbit, gastric corpus mucosa cells, final concentration 10^-4 M, smaller value is better, read-out: MTT: cell damaging rate
Source text: MTT: Cell Damaging and Protecting Effect Test
It is confirmed that there is no toxicity in cell level. Those having a toxicity in cell level are inappropriate as an anti-ulcer drug.
A male Japanese White rabbit (2.5 to 3 kg) was anesthetized to death by Nembutal™ and, immediately thereafter, its stomach was removed. The greater curvature of the stomach was incised so as to remove the stomach contents therefrom. After the mucosal surface was washed with HBSS (Hanks' Balanced Salt Solution), the stomach in ice-cooled HBSS was transferred to a laboratory. Then, after the pyloric antrum was removed, the gastric corpus mucosa was separated by a spatula and then minced into 2 to 3 mm^3 pieces in BME (Basal Medium Eagle). Thereafter, these pieces were shaken at 120 to 130 cycles/minute for 15 minutes at 37° C. in BME 60 ml containing 280 U/ml of dispase and 30 to 50 U/ml of collagenase. Here, the concentration of collagenase was appropriately changed for each lot in view of the state of cells. The pieces were washed twice with EBSS (Earle's Balanced Salt Solution) containing 1 mM of EDTA and then shaken in MEM (Minimum Essential Medium) containing 1 mM of EDTA at 37° C. for 5 minutes. Subsequently, they were shaken in the dispase and collagenase having the same concentrations as those mentioned above for 15 minutes so as to remove the supernatant and then further shaken at 37° C. for 50 to 60 minutes at 120 to 130 cycles/minute. Then, after being washed twice with HBSS, Ham F12 containing 2% of Ultrocer G™ was used to attain the concentration of 1×10^6 cells/ml. Thus formed suspension was dispensed in each well of a 96-well plate by 200 μl. The plate was incubated in the atmosphere composed of 5% CO2 and 95% air at 37° C. for three days so as to attain a confluent state and then subjected to MTT assay.
The sample compound was dissolved in DMSO so as to attain a concentration of 10^-2 M and then diluted with HBSS containing 2% of Ultrocer G™ so as to attain a final concentration of 10^-4 M. To each group, which 8 wells were used for, 10 μl of MTT reagent was added immediately after 100 μl of the medium in each well was exchanged for same volume of the resulting solution of the sample compound. After being incubated in an atmosphere composed of 5% CO2 and 95% air at 37° C. for 4 hours, thus formed solution was centrifuged and then its supernatant was discarded. Subsequently, 100 μl of 100% ethanol was added to the residue so as to dissolve MTT formazan. Then, the absorbance (OD: 570 to 630) was measured by a microplate reader. This method utilizes a phenomenon in which MTT is changed to MTT formazan only by mitochondria of living cells so as to change color.
The cell damaging or cell protecting effect of the sample compound at the final concentration of 10^-4 M was expressed as cell damaging rate (%) as follows:
cell damaging rate (%)=(1-(absorbance in sample group/absorbance in control
Accordingly, the smaller value is better in the cell damaging rate.

CCN(CC)CCNC(=O)c1ccccc1OC/C=C(\C)CCC=C(C)C [Example 2]
inhibition at 10 µM [1]: 99.9%
WIS: ulcer formation inhibitory rate [2]: 82%
cytotoxicity at 4 h, 100 µM [3]: 28%

CCN(CC)CCNC(=O)c1ccc(OCC=C(C)C)cc1 [Example 3]
inhibition at 10 µM [1]: 70.8%
WIS: ulcer formation inhibitory rate [2]: 88%
cytotoxicity at 4 h, 100 µM [3]: 1%

CCN(CC)CCNC(=O)c1ccc(OC/C=C(/C)CCC=C(C)C)cc1 [Example 5]
inhibition at 10 µM [1]: 109%
WIS: ulcer formation inhibitory rate [2]: 90%
cytotoxicity at 4 h, 100 µM [3]: 30%

CCC(C)N(CCNC(=O)c1ccc(OC/C=C(\C)CCC=C(C)C)cc1)C(C)CC (centres unmarked) [Example 8]
inhibition at 10 µM [1]: 99.9%
WIS: ulcer formation inhibitory rate [2]: 58%
cytotoxicity at 4 h, 100 µM [3]: 38%

CC(C)=CCC/C(C)=C/COc1ccccc1C(=O)NCCN(C)C [Example 13]
inhibition at 10 µM [1]: 96.6%
WIS: ulcer formation inhibitory rate [2]: 75%
cytotoxicity at 4 h, 100 µM [3]: 19%

CCN(CC)CCNC(=O)c1ccc(OC/C=C(\C)CCC=C(C)C)cc1OC/C=C(\C)CCC=C(C)C [Example 15]
inhibition at 10 µM [1]: 96.5%
WIS: ulcer formation inhibitory rate [2]: 92%
cytotoxicity at 4 h, 100 µM [3]: 44%

CCN(CC)CCNC(=O)c1ccc(OCC=C(C)C)cc1OCC=C(C)C [Example 20]
inhibition at 10 µM [1]: 100%
WIS: ulcer formation inhibitory rate [2]: 67%
cytotoxicity at 4 h, 100 µM [3]: 28%

CCN(CC)CCNC(=O)c1cc(OCC=C(C)C)ccc1OCC=C(C)C [Example 21]
inhibition at 10 µM [1]: 100%
WIS: ulcer formation inhibitory rate [2]: 77%
cytotoxicity at 4 h, 100 µM [3]: 36%

CCN(CC)CCNC(=O)c1ccc(OCC=C(C)C)c(OCC=C(C)C)c1 [Example 22]
inhibition at 10 µM [1]: 99.8%
WIS: ulcer formation inhibitory rate [2]: 81%
cytotoxicity at 4 h, 100 µM [3]: 16%

CCN(CC)CCNC(=O)c1ccccc1SC/C=C(\C)CCC=C(C)C [Example 25]
inhibition at 10 µM [1]: 96.1%
WIS: ulcer formation inhibitory rate [2]: 82%
cytotoxicity at 4 h, 100 µM [3]: 19%

CC(C)=CCC/C(C)=C/CN(C/C=C(\C)CCC=C(C)C)c1ccc(C(=O)NCCN(C(C)C)C(C)C)cc1 [Example 27]
inhibition at 10 µM [1]: 38.5%
WIS: ulcer formation inhibitory rate [2]: 45%
cytotoxicity at 4 h, 100 µM [3]: 39%

CCN(CC)CCNC(=O)c1ccc(OC)c(OC/C=C(\C)CCC=C(C)C)c1 [Example 29]
inhibition at 10 µM [1]: 100%
WIS: ulcer formation inhibitory rate [2]: 81%
cytotoxicity at 4 h, 100 µM [3]: 49%

CCN(CC)CCNC(=O)c1cccc(OC)c1OC/C=C(\C)CCC=C(C)C [Example 31]
inhibition at 10 µM [1]: 100%
WIS: ulcer formation inhibitory rate [2]: 73%
cytotoxicity at 4 h, 100 µM [3]: 17%

CCN(CC)CCNC(=O)c1ccc(OC)cc1OC/C=C(\C)CCC=C(C)C [Example 32]
inhibition at 10 µM [1]: 100%
WIS: ulcer formation inhibitory rate [2]: 73%
cytotoxicity at 4 h, 100 µM [3]: 28%

CCN(CC)CCNC(=O)c1cc(OC)ccc1OC/C=C(\C)CCC=C(C)C [Example 33]
inhibition at 10 µM [1]: 100%
WIS: ulcer formation inhibitory rate [2]: 67%
cytotoxicity at 4 h, 100 µM [3]: 26%

CCN(CC)CCNC(=O)c1cc(F)ccc1OC/C=C(\C)CCC=C(C)C [Example 35]
inhibition at 10 µM [1]: 105%
WIS: ulcer formation inhibitory rate [2]: 81%
cytotoxicity at 4 h, 100 µM [3]: 25%

CC(C)N(CCNC(=O)c1ccc2c(c1)OCO2)C(C)C [Example 58]
WIS: ulcer formation inhibitory rate [2]: 96%
cytotoxicity at 4 h, 100 µM [3]: 29%

CC(C)N(CCNC(=O)c1cc(C(C)(C)C)cc(C(C)(C)C)c1)C(C)C [Example 65]
WIS: ulcer formation inhibitory rate [2]: 86%
cytotoxicity at 4 h, 100 µM [3]: 5%

CC(C)N(CCNC(=O)c1ccc(C(=O)NC(C)(C)C)cc1)C(C)C [Example 67]
WIS: ulcer formation inhibitory rate [2]: 77%
cytotoxicity at 4 h, 100 µM [3]: -35%

CC(C)N(CCNC(=O)c1ccc(NC(C)(C)C)cc1)C(C)C [Example 68]
WIS: ulcer formation inhibitory rate [2]: 79%
cytotoxicity at 4 h, 100 µM [3]: -58%
